These results are taken from patent publication US20090069321A1, “CYANOMETHYL SUBSTITUTED N-ACYL TRYPTAMINES” (priority 2007, published 2009).

As usually defined, the pIC50 is the IC50 on a negative log10 scale, so that one unit is a factor of ten.

The structures appear in SMILES notation. pIC50: −log10 of the molar value.

The experiment has as its target T1, human FSH receptor (Homo sapiens, UniProt P23945).
T1 construct: expressed in transfected cells; host or cells: CHO cells (hFSHR clone 16)
T1 sequence (P23945 18-695): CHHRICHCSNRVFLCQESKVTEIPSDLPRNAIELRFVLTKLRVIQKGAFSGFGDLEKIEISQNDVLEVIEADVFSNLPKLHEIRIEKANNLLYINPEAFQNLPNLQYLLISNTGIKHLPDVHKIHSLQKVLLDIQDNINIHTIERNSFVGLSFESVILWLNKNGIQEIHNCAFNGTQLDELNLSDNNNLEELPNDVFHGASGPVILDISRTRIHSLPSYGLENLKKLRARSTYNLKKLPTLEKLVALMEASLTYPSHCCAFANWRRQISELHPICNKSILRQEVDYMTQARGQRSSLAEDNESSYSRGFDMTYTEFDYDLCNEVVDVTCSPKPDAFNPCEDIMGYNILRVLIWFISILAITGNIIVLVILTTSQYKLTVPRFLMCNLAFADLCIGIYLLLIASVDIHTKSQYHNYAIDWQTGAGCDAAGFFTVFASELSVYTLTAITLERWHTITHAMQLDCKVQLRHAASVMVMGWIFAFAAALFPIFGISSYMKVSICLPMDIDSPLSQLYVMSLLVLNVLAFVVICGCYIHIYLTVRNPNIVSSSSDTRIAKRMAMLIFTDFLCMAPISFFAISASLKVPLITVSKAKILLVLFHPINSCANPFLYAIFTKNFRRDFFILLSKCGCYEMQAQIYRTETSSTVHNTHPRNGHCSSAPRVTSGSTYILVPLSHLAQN
Description: HTRF assay for measuring cAMP in cells (FSH antagonism). It counts as cell-based. Conditions: hFSHR clone 16 cells (CHO cells stably transfected with the human FSH receptor); in the presence of 1e-9 mol/l hFSH; 37° C. for 2 h; read-out: IC50, FSH antagonistic effect in the HTRF assay. As to the method:
HTRF Assay for Measuring cAMP in Cells
The method is based on a competitive immunoassay between native cAMP, which has been produced by the cells, and cAMP which is labelled with cAMPD2 conjugate. The tracer binding was visualized by a monoclonal antibody, anti-cAMP labelled with cryptate [HTRF=homogeneous time-resolved fluorescence].
The specific signal is inversely proportional to the cAMP concentration of the samples employed.
The 665 nm/620 nm fluorescence ratio was evaluated.
The following material was used: 96-well plates for the tissue culture, 96-well plates with black edge and black base (e.g. Fluotrac 600 from Greiner), 96-well plates for the substance dilutions of polypropylene and cAMP Femtomolar (4000wells Kit, CIS Bio International # 62AM5PEJ).
The following reagents were used: BSA (bovine serum albumin) Fraction V protease-free, IBMX (3-isobutyl-1-methylxanthine), hFSH (human follicle stimulating hormone), Triton X-100 analytical grade, potassium fluoride analytical grade, G 418 (Geneticin) and Accutase.
Buffer 1 (washing and testing buffer) contained PBS, 1 mM CaCl2, 1 mM MgCl2, 0.2% glucose; 0.1% BSA, 1 mM IBMX.
Buffer 2 (2× lysis buffer) contained 1% Triton X-100 in PBS (without CaCl2 and MgCl2).
Buffer 3 (assay buffer) contained 50 mM potassium phosphate buffer (pH 7.0); 800 mM potassium fluoride; 0.2% BSA (always added fresh).
On day 1, the cells were seeded in 96-well plates (3×10^4 cells per well hFSHR clone 16 cells (CHO cells stably transfected with the human FSH receptor in 150 μl of medium). The next day, test substance dilutions were made up. For this purpose, all the substances were diluted in ice-cold buffer 1 (with or without hFSH), and the substance dilutions were placed on ice until applied to the cells.
The cell supernatant was then aspirated off, and the cells were washed 2× with 200 μl of buffer 1. The cells were treated with 60 μl of the appropriate substance concentrations at 37° C. for 2 h. The cells were then lysed with 60 μl of buffer 2 (put onto the supernatant) (on a plate shaker at RT for 30 min).
The test conjugates (cAMP-D2 and anti-cAMP cryptate, CIS Bio) were diluted in buffer 3 in accordance with the manufacturers' information. The actual mixture for measurement was pipetted into a black 96-well plate (in each case 15 μl of the cell lysate diluted with 35 μl of buffer 1; firstly 25 μl of cAMP-D2 conjugate were pipetted and, after 10 min, 25 μl of the anti-cAMP cryptate were added). This is followed by incubation at RT for 90 minutes. The measurement was carried out in a PheraStar (BMG).
Tissue Culture Conditions
Dose-effect curve (hFSH) for the human receptor: 1e-8, 3e-9, 1e-9, 3e-10, 1e-10, 3e-11, 1e-11, 3e-12 mol/l.
The test substances were employed in suitable dilutions in the absence (test for agonism) and in the presence of 1e-9 mol/l hFSH.
The values of the well ratio were averaged and then entered directly in SigmaPlot versus the concentrations. The maximum and minimum values were determined for each plate, and half the difference is to be regarded as IC50.
For the compound `CNC(=O)c1cc(F)cc(-c2ccc(OC(C)C)c(C(=O)NC(CC#N)Cc3c[nH]c4ccccc34)c2)c1` (stereo not shown) [Example 1, 5′-Fluoro-4-isopropoxy-biphenyl-3,3′-dicarboxylic acid 3-{[2-cyano-1-(1H-indol-3-ylmethyl)-ethyl]-amide}3′-methylamide], the pIC50 was 5.46.

With `Cc1cc(C(N)=O)ccc1C#Cc1ccc(OC(F)(F)F)c(C(=O)NC(CC#N)Cc2c[nH]c3ccccc23)c1` (stereo not shown) [Example 4, 5-(4-Carbamoyl-2-methylphenylethynyl)-N-[2-cyano-1-(1H-indol-3-ylmethyl)-ethyl]-2-trifluoromethoxy-benzamide], the pIC50 was 6.60.

Turning to `CC(C)Oc1ccc(-c2ccc(C(=O)N3CCOCC3)c(Cl)c2)cc1C(=O)NC(CC#N)Cc1c[nH]c2ccccc12` (stereo not shown) [Example 6, 3′-Chloro-4-isopropoxy-4′-(morpholine-4-carbonyl)-biphenyl-3-carboxylic acid [2-cyano-1-(1H-indol-3-ylmethyl)-ethyl]-amide], the pIC50 was 7.10.

Turning to `CC(C)Oc1ccc(C#Cc2ccc(C(N)=O)cc2)cc1C(=O)NC(CC#N)Cc1c[nH]c2ccccc12` (stereo not shown) [Example 8, 5-(4-Carbamoyl-phenylethynyl)-N-[2-cyano-1-(1H-indol-3-ylmethyl)-ethyl]-2-isopropoxy-benzamide], the pIC50 is 6.70. With `CNC(=O)c1ccc(C#Cc2ccc(OC(C)C)c(C(=O)NC(CC#N)Cc3c[nH]c4ccccc34)c2)cc1` (stereo not shown) [Example 9, N-[2-Cyano-1-(1H-indol-3-ylmethyl)-ethyl]-2-isopropoxy-5-(4-methylcarbamoyl-phenylethynyl)-benzamide] the figure was 6.12; with `CNC(=O)c1cccc(C#Cc2ccc(OC(C)C)c(C(=O)NC(CC#N)Cc3c[nH]c4ccccc34)c2)c1` (stereo not shown) [Example 10, N-[2-Cyano-1-(1H-indol-3-ylmethyl)-ethyl]-2-isopropoxy-5-(3-methylcarbamoyl-phenylethynyl)-benzamide], 5.46; with `CNC(=O)c1ccccc1C#Cc1ccc(OC(C)C)c(C(=O)NC(CC#N)Cc2c[nH]c3ccccc23)c1` (stereo not shown) [Example 11, N-[2-Cyano-1-(1H-indol-3-ylmethyl)-ethyl]-2-isopropoxy-5-(2-methylcarbamoyl-phenylethynyl)-benzamide], 5.00.
